Reference: patent US8697739B2, “Bicyclic acetyl-CoA carboxylase inhibitors and uses thereof” (Novartis AG, priority 2010, dated 2014)

target: T1, human acetyl-CoA carboxylase 2 (ACC2) (Homo sapiens, UniProt O00763); experiment: Acetyl-CoA carboxylase enzyme assay (malonyl-CoA formation by LC/MS/MS); assay type: biochemical; details: recombinant human ACC2 (aa 144-2458); read-out: IC50 ACC2
T1 construct: The cDNA encoding amino acids 144 to 2458 of human acetyl-CoA carboxylase 2; made in house; host or cells: Sf9 insect cells (baculovirus, pFastBac1)
How it was run: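 Malonyl-CoA formation was read by LC/MS/MS MRM against a [13C3]-malonyl-CoA internal standard, after acetic acid quench. The enzyme was baculovirus/Sf9-expressed human ACC2 residues 144–2458, given 15 minutes room-temperature compound preincubation in HEPES pH 7.5 buffer with MgCl2, citrate and DTT. Substrate solution held 50 μM acetyl-CoA, 120 μM ATP and 2 mM KHCO3.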

T1 sequence (O00763 144-2458): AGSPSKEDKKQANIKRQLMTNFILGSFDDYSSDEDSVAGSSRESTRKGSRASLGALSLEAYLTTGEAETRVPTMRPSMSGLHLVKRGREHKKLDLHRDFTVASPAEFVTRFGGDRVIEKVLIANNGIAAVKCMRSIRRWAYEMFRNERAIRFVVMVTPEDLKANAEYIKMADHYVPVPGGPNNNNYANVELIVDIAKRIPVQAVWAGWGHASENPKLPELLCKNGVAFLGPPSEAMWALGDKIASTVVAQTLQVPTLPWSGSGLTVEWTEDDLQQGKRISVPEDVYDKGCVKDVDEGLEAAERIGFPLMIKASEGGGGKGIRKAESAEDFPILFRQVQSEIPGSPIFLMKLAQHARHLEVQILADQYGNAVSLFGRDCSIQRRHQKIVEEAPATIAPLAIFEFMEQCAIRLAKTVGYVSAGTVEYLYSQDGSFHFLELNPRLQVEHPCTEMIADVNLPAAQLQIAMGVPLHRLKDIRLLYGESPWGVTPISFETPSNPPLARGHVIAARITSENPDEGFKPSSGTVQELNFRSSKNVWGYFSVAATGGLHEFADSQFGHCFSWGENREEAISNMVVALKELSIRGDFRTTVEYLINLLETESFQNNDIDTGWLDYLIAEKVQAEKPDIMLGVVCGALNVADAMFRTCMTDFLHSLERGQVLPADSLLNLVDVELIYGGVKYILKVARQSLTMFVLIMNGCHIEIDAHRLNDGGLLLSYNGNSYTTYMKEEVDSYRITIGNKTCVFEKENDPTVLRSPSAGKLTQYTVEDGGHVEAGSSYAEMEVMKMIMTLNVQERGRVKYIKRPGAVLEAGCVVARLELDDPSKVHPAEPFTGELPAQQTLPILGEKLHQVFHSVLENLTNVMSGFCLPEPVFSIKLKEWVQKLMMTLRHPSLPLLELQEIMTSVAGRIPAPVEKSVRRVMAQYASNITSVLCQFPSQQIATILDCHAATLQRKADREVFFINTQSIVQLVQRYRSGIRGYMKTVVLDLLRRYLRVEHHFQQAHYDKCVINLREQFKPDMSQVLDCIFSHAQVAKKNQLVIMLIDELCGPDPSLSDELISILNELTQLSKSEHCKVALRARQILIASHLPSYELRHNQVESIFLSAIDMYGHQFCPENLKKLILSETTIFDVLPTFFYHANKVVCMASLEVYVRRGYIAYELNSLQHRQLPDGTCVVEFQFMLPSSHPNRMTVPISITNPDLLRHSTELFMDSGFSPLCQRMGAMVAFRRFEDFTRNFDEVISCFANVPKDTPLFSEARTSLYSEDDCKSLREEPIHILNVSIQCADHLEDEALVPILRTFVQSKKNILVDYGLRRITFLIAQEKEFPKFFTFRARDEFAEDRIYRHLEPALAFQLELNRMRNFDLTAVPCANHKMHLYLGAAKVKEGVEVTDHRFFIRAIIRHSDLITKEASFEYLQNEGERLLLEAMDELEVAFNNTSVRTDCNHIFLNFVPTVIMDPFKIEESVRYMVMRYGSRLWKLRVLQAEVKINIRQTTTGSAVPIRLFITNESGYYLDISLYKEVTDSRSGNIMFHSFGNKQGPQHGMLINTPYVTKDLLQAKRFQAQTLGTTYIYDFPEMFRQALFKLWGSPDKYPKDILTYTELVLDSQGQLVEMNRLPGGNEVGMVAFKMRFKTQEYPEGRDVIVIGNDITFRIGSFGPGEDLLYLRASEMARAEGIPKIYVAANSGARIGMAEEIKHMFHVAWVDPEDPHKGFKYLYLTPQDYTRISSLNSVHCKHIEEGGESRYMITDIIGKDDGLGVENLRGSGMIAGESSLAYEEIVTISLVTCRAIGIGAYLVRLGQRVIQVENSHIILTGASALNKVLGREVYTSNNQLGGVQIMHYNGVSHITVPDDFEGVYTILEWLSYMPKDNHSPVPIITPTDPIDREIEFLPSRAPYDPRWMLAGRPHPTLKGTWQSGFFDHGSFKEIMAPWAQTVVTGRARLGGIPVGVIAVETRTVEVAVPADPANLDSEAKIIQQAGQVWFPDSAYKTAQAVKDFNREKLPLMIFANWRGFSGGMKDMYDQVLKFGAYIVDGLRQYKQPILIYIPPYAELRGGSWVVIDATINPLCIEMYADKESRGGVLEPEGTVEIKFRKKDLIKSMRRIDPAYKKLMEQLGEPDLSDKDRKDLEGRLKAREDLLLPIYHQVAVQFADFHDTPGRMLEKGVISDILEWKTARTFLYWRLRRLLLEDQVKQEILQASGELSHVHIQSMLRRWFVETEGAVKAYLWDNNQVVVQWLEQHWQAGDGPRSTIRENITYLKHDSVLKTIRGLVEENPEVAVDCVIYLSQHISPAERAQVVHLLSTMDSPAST

Compound	IC50
CC(NC(=O)[C@H]1CC[C@H](NS(=O)(=O)c2ccc3c(c2)N(C)CCC3)CC1)c1ccccn1 (stereo partly drawn) [Example 159, (1r,4r)-4-(1-methyl-1,2,3,4-tetrahydroquinoline-7-sulfonamido)-N-(1-(pyridin-2-yl)ethyl)cyclohexanecarboxamide]	345 nM
CC(C)N1CCN(C(C)C)c2ncc(S(=O)(=O)N[C@H]3CC[C@H](C(=O)N[C@H](C)c4ccc(F)cc4)CC3)cc21 [Example 143, (1r,4R)-4-(1,4-diisopropyl-1,2,3,4-tetrahydropyrido[3,2-b]pyrazine-7-sulfonamido)-N-((R)-1-(4-fluorophenyl)ethyl)cyclohexanecarboxamide]	325 nM
C[C@@H](NC(=O)[C@H]1CC[C@H](NS(=O)(=O)c2ccc3nc(N4CCNC(C(F)(F)F)C4)ccc3c2)CC1)c1ccc(F)cc1 (stereo partly drawn) [Example 248, (1r,4R)-N-((R)-1-(4-fluorophenyl)ethyl)-4-(2-(3-(trifluoromethyl)piperazin-1-yl)quinoline-6-sulfonamido)cyclohexanecarboxamide]	210 nM
C[C@@H](NC(=O)[C@H]1CC[C@H](NS(=O)(=O)c2ccc3cc(C4CC4)[nH]c3c2)CC1)c1ccccn1 [Example 294, (1r,4R)-4-(2-cyclopropyl-1H-indole-6-sulfonamido)-N-((R)-1-(pyridin-2-yl)ethyl)cyclohexanecarboxamide]	279 nM
Cn1c(-c2ccc(CCC(=O)O)cc2)cc2ccc(S(=O)(=O)N[C@H]3CC[C@H](C(=O)N4CCCCC4)CC3)cc21 [Example 359, 3-(4-(1-methyl-6-(N-((1r,4r)-4-(piperidine-1-carbonyl)cyclohexyl)sulfamoyl)-1H-indol-2-yl)phenyl)propanoic acid]	95 nM
CC(C)OC(=O)c1ccc(NS(=O)(=O)c2ccc3[nH]c(Nc4ccccc4)nc3c2)cc1 [Example 521, isopropyl 4-(2-(phenylamino)-1H-benzo[d]imidazole-5-sulfonamido)benzoate]	239 nM
C[C@@H](NC(=O)[C@H]1CC[C@H](NS(=O)(=O)c2ccc3nc(N4CCNCC4)ccc3c2)CC1)c1ccc(F)cc1 [Example 238, (1r,4R)-N-((R)-1-(4-fluorophenyl)ethyl)-4-(2-(piperazin-1-yl)quinoline-6-sulfonamido)cyclohexanecarboxamide]	65 nM
CC(C)(C)OC(=O)N1CCN(C(=O)[C@H]2CC[C@H](NS(=O)(=O)c3ccc4oc5ccccc5c4c3)CC2)[C@@H](c2ccccc2)C1 [Example 255, (S)-tert-butyl 4-((1r,4S)-4-(dibenzo[b,d]furan-2-sulfonamido)cyclohexanecarbonyl)-3-phenylpiperazine-1-carboxylate]	15 nM
COCCOc1ccc(-c2cc3ccc(S(=O)(=O)N[C@H]4CC[C@H](C(=O)N5CCC[C@@H]5C(C)(C)O)CC4)cc3n2C)cc1 [Example 451, N-((1R,4r)-4-((R)-2-(2-hydroxypropan-2-yl)pyrrolidine-1-carbonyl)cyclohexyl)-2-(4-(2-methoxyethoxy)phenyl)-1-methyl-1H-indole-6-sulfonamide]	80 nM
O=C(NCC1CCCCCC1)[C@H]1CC[C@H](NS(=O)(=O)c2ccc3[nH]c(-c4ccccc4)nc3c2)CC1 [Example 641, (1r,4r)-N-(cycloheptylmethyl)-4-(2-phenyl-1H-benzo[d]imidazole-5-sulfonamido)cyclohexanecarboxamide]	276 nM
C[C@@H](NC(=O)[C@H]1CC[C@H](NS(=O)(=O)c2ccc3nc(OCC(=O)O)ccc3c2)CC1)c1ccc(F)cc1 [Example 78, 2-(6-(N-((1R,4r)-4-((R)-1-(4-fluorophenyl)ethylcarbamoyl)cyclohexyl)sulfamoyl)quinolin-2-yloxy)acetic acid]	470 nM
Cc1cnc2c(S(=O)(=O)N[C@H]3CC[C@H](C(=O)N[C@H](C)c4ccc(F)cc4)CC3)cccc2c1 [Example 165, (1r,4R)-N-((R)-1-(4-fluorophenyl)ethyl)-4-(3-methylquinoline-8-sulfonamido)cyclohexanecarboxamide]	675 nM
CCCN(C)C(=O)[C@H]1CC[C@H](NS(=O)(=O)c2ccc3[nH]c(-c4ccc(N5CCN(C)CC5)cc4)nc3c2)CC1 [Example 565, (1r,4r)-N-methyl-4-(2-(4-(4-methylpiperazin-1-yl)phenyl)-1H-benzo[d]imidazole-5-sulfonamido)-N-propylcyclohexanecarboxamide]	48 nM
CC(C)(C)OC(=O)N1CCN(C(=O)[C@H]2CC[C@H](NS(=O)(=O)c3ccc4c(c3)CCC(C(F)(F)F)N4)CC2)C(c2ccccc2)C1 (stereo partly drawn) [Example 179, tert-butyl 3-phenyl-4-((1r,4r)-4-(2-(trifluoromethyl)-1,2,3,4-tetrahydroquinoline-6-sulfonamido)cyclohexanecarbonyl)piperazine-1-carboxylate]	433 nM
Cn1c(-c2ccc(F)cc2)cc2ccc(S(=O)(=O)N[C@H]3CC[C@H](C(=O)N4CCNC(C(F)(F)F)C4)CC3)cc21 (stereo partly drawn) [Example 344, 2-(4-fluorophenyl)-1-methyl-N-((1r,4r)-4-(3-(trifluoromethyl)piperazine-1-carbonyl)cyclohexyl)-1H-indole-6-sulfonamide]	60 nM
O=C([C@H]1CC[C@H](NS(=O)(=O)c2ccc3cc(-c4ccccc4)[nH]c3c2)CC1)N1CCNC(C(F)(F)F)C1 (stereo partly drawn) [Example 323, 2-phenyl-N-((1r,4r)-4-(3-(trifluoromethyl)piperazine-1-carbonyl)cyclohexyl)-1H-indole-6-sulfonamide]	55 nM
C[C@@H](NC(=O)[C@H]1CC[C@H](NS(=O)(=O)c2ccc3[nH]c(-c4ccccc4)nc3c2)CC1)c1ccc(F)cc1 [Example 611, (1r,4R)-N-((R)-1-(4-fluorophenyl)ethyl)-4-(2-phenyl-1H-benzo[d]imidazole-5-sulfonamido)cyclohexanecarboxamide]	< 10 nM
CC(=O)Nc1ccc(-c2nc3ccc(S(=O)(=O)Nc4ccc(C(=O)OC(C)C)cc4)cc3[nH]2)cc1 [Example 498, isopropyl 4-(2-(4-acetamidophenyl)-1H-benzo[d]imidazole-6-sulfonamido)benzoate]	495 nM
C[C@@H](NC(=O)[C@H]1CC[C@H](NS(=O)(=O)c2ccc3nc(N4CCCCC4)ccc3c2)CC1)c1ccc(F)cc1 [Example 216, (1r,4R)-N-((R)-1-(4-fluorophenyl)ethyl)-4-(2-(piperidin-1-yl)quinoline-6-sulfonamido)cyclohexanecarboxamide]	180 nM
CC(C)(C)OC(=O)N1CCN(C(=O)[C@H]2CC[C@H](NS(=O)(=O)c3cnc4ccccc4c3)CC2)[C@@H](c2ccccc2)C1 [Example 84, (S)-tert-butyl 3-phenyl-4-((1r,4S)-4-(quinoline-3-sulfonamido)cyclohexanecarbonyl)piperazine-1-carboxylate]	45 nM
O=S(=O)(Nc1ccc(-c2nnc(-c3ccccc3)o2)cc1)c1ccc2nc(-c3ccccc3)[nH]c2c1 [Example 518, 2-phenyl-N-(4-(5-phenyl-1,3,4-oxadiazol-2-yl)phenyl)-1H-benzo[d]imidazole-6-sulfonamide]	3580 nM
CCOc1ccc2cc(S(=O)(=O)N[C@H]3CC[C@H](C(=O)N[C@@H](c4ccccc4)C(C)(C)O)CC3)ccc2n1 [Example 206, (1r,4S)-4-(2-ethoxyquinoline-6-sulfonamido)-N-((S)-2-hydroxy-2-methyl-1-phenylpropyl)cyclohexanecarboxamide]	20 nM
O=C(Nc1cccnc1)[C@H]1CC[C@H](NS(=O)(=O)c2ccc3[nH]c(-c4ccccc4)nc3c2)CC1 [Example 649, (1r,4r)-4-(2-phenyl-1H-benzo[d]imidazole-5-sulfonamido)-N-(pyridin-3-yl)cyclohexanecarboxamide]	387 nM
C[C@@H](NC(=O)[C@H]1CC[C@H](NS(=O)(=O)c2ccc3[nH]c(-c4cccnc4)nc3c2)CC1)c1ccccc1 [Example 281, (1r,4R)-N-((R)-1-phenylethyl)-4-(2-(pyridin-3-yl)-1H-benzo[d]imidazole-5-sulfonamido)cyclohexanecarboxamide]	11 nM
O=C([C@H]1CC[C@H](NS(=O)(=O)c2ccc3[nH]c(-c4ccccc4)nc3c2)CC1)N1CCc2ccccc2C1 [Example 616, 2-phenyl-N-((1r,4r)-4-(1,2,3,4-tetrahydroisoquinoline-2-carbonyl)cyclohexyl)-1H-benzo[d]imidazole-5-sulfonamide]	370 nM
C[C@@H](NC(=O)[C@H]1CC[C@H](NS(=O)(=O)c2ccc3[nH]c(-c4ccncc4)nc3c2)CC1)c1ccccc1 [Example 280, (1r,4R)-N-((R)-1-phenylethyl)-4-(2-(pyridin-4-yl)-1H-benzo[d]imidazole-5-sulfonamido)cyclohexanecarboxamide]	12 nM
C[C@@H](NC(=O)[C@H]1CC[C@H](NS(=O)(=O)c2ccc3c(c2)CCCN3)CC1)c1ccc(F)cc1 [Example 152, (1r,4R)-N-((R)-1-(4-fluorophenyl)ethyl)-4-(1,2,3,4-tetrahydroquinoline-6-sulfonamido)cyclohexanecarboxamide]	60 nM
COCc1ccc(-c2cc3ccc(S(=O)(=O)N[C@H]4CC[C@H](C(=O)N5CCOC[C@@H]5C)CC4)cc3n2C)cc1 [Example 437, 2-(4-(methoxymethyl)phenyl)-1-methyl-N-((1S,4r)-4-((S)-3-methylmorpholine-4-carbonyl)cyclohexyl)-1H-indole-6-sulfonamide]	40 nM
CC(NC(=O)[C@H]1CC[C@H](NS(=O)(=O)c2cnc3ccccc3c2)CC1)c1ccc(F)cc1F (stereo partly drawn) [Example 67, (1r,4r)-N-(1-(2,4-difluorophenyl)ethyl)-4-(quinoline-3-sulfonamido)cyclohexanecarboxamide]	240 nM
Cc1cc(-c2ccc3cc(S(=O)(=O)N[C@H]4CC[C@H](C(=O)N[C@H](C)c5ccc(F)cc5)CC4)ccc3n2)cc(C)n1 [Example 227, (1r,4R)-4-(2-(2,6-dimethylpyridin-4-yl)quinoline-6-sulfonamido)-N-((R)-1-(4-fluorophenyl)ethyl)cyclohexanecarboxamide]	15 nM
